Source: patent US9572799B2, “Pyrazolopyridine derivatives for use in the treatment of bladder cancer” (SANOFI, priority 2013, dated 2017)

How the values were obtained:
[1] = system: bladder cancer tumour cells of TCC97-7 type carrying the Ser249Cys mutation of FGF receptor 3; assay: Inhibition of serum-induced proliferation of TCC97-7 bladder cancer cells (cell-covered surface area, Incucyte); assay type: cell-based; details: 72 h, TCC97-7 cell line in the presence of serum, after 3 days
Experimental: Evaluation of the Capacity of the FGF-R Antagonists to Inhibit Serum-Induced Proliferation of Bladder Cancer Tumour Cells of TCC97-7 Type Carrying the Ser249Cys Mutation of FGF Receptor 3
To do this, 2000 cells are seeded in the morning in 50 μl of complete medium (Ham-F/12, 1% FCS, 2 mM glutamine, non-essential amino acids, sodium pyruvate, 1% insulin/transferrin/selenium, hydrocortisone). In the evening, 50 μl of the various compounds are added at 2 or 20 μM after dilution in complete culture medium in order to obtain final concentrations of 1 or 10 μM. After 3 days, cell proliferation is evaluated by measuring the cell-covered surface area of a well of a 96 well plate. This surface area is measured using an Incucyte apparatus (Essen BioScience). The percentage inhibition of the cell proliferation is calculated by considering the surface area occupied by the TCC97-7 cells cultured in the absence of FGF-R antagonists to be 0% inhibition. 100% inhibition would correspond to a well no longer containing cells.
Thus, compounds 1 to 24 are capable of inhibiting TCC97-7 cell proliferation by more than 20% at the dose of 1 or 10 μM. (Table No. 2).

[2] = system: TCC97-7 bladder cancer cells carrying the Ser249Cys mutation of FGF-R3; assay: Reduction of intracellular ATP content of TCC97-7 cells in serum-supplemented medium (Cell Titer-Glo); assay type: cell-based; details: 72 h, TCC97-7 cells cultured in the presence of serum, after 3 days, read-out: Inhibition of the amount of intracellular ATP (%)
Experimental: Evaluation of the Capacity of FGF-R Antagonists to Reduce the ATP Content of TCC97-7 Bladder Cancer Cells Carrying the Ser249Cys Mutation of FGF-R3, Cultured in a Serum-Supplemented Medium
To do this, 3000 cells are seeded in 50 μl of complete medium (Ham-F/12, 1% FCS, 2 mM glutamine, non-essential amino acids, sodium pyruvate, 1% insulin/transferrin/selenium, hydrocortisone). 16 hours later, 50 μl of the various compounds are added at 2 and 20 μM after dilution in complete culture medium in order to obtain final concentrations of 1 and 10 μM. After 3 days, the ATP content of the cells is measured using the Cell Titer-Glo® Luminescent Cell Viability Assay kit (Promega, France) according to the supplier's recommendations. The percentage inhibition of the amount of intracellular ATP is calculated by considering the ATP content of the cells cultured in the absence of antagonist to be 0% inhibition. 100% inhibition would correspond to a well in which the ATP content is zero.
Thus, compounds 1 to 24 are capable of inhibiting the amount of intracellular ATP in TCC97-7 cells by more than 20% at the dose of 1 or 10 μM (Table No. 3).

Row | melting point | SMILES | inhibition at 1 µM [1] | inhibition at 10 µM [1] | inhibition at 1 µM [2] | inhibition at 10 µM [2]
1 | 233 °C | COc1cccc(-c2n[nH]c3nc(-c4ccc(N)c(C#N)c4)cc(C(F)F)c23)c1 [compound 12, 2-Amino-5-[4-difluoromethyl-3-(3-methoxyphenyl)-1H-pyrazolo[3,4-b]pyridin-6-yl]benzonitrile] | 12.1% | 95.8% | 23.8% | 75.8%
2 | 380 °C | O=c1[nH]c2ccc(-c3cc(C(F)(F)F)c4c(-c5ccccc5)n[nH]c4n3)cc2[nH]1 [compound 15, 5-(3-Phenyl-4-trifluoromethyl-1H-pyrazolo[3,4-b]pyridin-6-yl)-1,3-dihydrobenzoimidazol-2-one] | -3% | 29% | -11% | 19%
